Like-named read-outs stand apart in the source and are kept apart here. Non-standard residues stand in square brackets, D forms with d. Residues, ends and D or L forms follow the SMILES beside them. Dmt = Cc1cc(O)cc(C)c1C[C@H](N)C(=O)O; Orn = NCCC[C@H](N)C(=O)O Where only a bound is given, the exact number is not on record here.

The test system of the experiment is A549 cells. The class given is cell-based, human. Particulars: 24 h. On the procedure: Cells were seeded in 96‐well cell culture plates (8000/well) and allowed to grow for 48 h. After washing with PBS, cells were fixed with 50% trichloroacetic acid and stained with SRB for 20 min. Excess SRB was removed, and cells were washed with 1% acetic acid. SRB extraction was done using 100 mM Tris‐base, and absorbance at 510 nm was determined using an Infinite M1000 plate reader (Tecan, Männedorf, Switzerland).
Fig. 7 PSD‐interacting peptides bind to PSD, inhibiting its activity, and when cell‐penetrating and mitochondria‐ or nucleus‐targeted, inhibit cell proliferation. […] (B) Inhibition of PSD activity by the 2F3 (●) or 1C11 (○) peptide. PSD activity was measured using the DSB‐3 method. (C‐E) Cell proliferation inhibition following incubation of A549 cells with the indicated mitochondria‐ or nucleus‐targeted peptides for 24 h in a serum‐free medium, and cell proliferation was assayed using the SRB method. Results are the means ± SEM (n = 3). (F) A549 cells were incubated for 90 min with 5 µM of the mitochondria‐ or nucleus‐targeted FITC‐labelled peptides, immunostained with anti‐SMAC antibodies and with DAPI and visualized by confocal microscope for subcellular localization. (a) and (b) present higher magnification, white arrows point to possible nuclear localization of the peptide, and blue arrows to its colocalization with mitochondria marker (n = 3). Scale bars represent 20, 10 µm as indicated.
Table S4. Effects of peptide identified as interacting with PSD or their interaction with SMAC/Diablo is prevented in the presence of PSD on A549 lung cancer cell growth A549 cells were seeded in 96-well plate (7000 cells/well). After 24 h cells were incubated without or with the indicated peptide concentration for 24 h in a serum-free medium. Then, cells were washed with PBS, and analyzed for cell growth using the SRB method. Results are the mean ± SD (n=3). Peptide sequence, its identification manner, based on interacting with PSD or their interaction with SMAC/Diablo is prevented in the presence of PSD are shown. In addition, the peptides are presented with the cell penetrating peptide targeting to the mitochondria or the nucleus. The results are presented as the concentration required for 50% inhibition (IC50).
No Peptide spot and Protein/Function Peptide and Cellular IC50 […]
ALSTSSPIPSVPQSQ transcriptional coactivator 2 Mitochondria (A) […]
AQPQTGSGAS truncated poly Q, transcriptional H-(D-Arg)–Dmt–Orn–Phe- 2F3 >100 Interacting with PSD coactivator for NOTCH proteins, Mitochondria promotes proliferative signaling R-{D-Arg}-RK- 2F3 28.9±5.2 during neurogenesis (Nucleus). Nucleus […]
PNQSSRAFQGTDHS transcriptional coactivator 2 Mitochondria
SDLAFDFLSQQ truncated poly Q, A transcriptional D-Arg–Dmt–Orn–Phe-2I8 66.8±4.7 Identified by PSD coactivator for NOTCH proteins, Mitochondria preventing SMAC promotes proliferative signaling R-{D-Arg}-RK-2I8 >100 interaction with it during neurogenesis (Nucleus). Nucleus […]
ALLTSGTSDPRARV protease promotes cell death either Mitochondria […]
TYGTPSLWARL by direct binding to IAPs proteins D-Arg–Dmt–Orn–Phe -1C11 89.3±5.49 Interacting with PSD leading to increased caspase Mitochondria activity or caspase-independent and serine protease activity-dependent R-{D-Arg}-RK- 1C11 66.5±3.9 mechanism. (Mitochondrion Nucleus intermembrane space). 1C11- R-{D-Arg}-RK 30.0±3.8 […]
ELYRMSTYSTFPAG Acts as an E3 ubiquitin-protein Mitochondria
VPVSERSLARA ligase, regulator of NF-kappa-B 1E14- D-Arg–Dmt–Orn–Phe >100 Identified by PSD signaling, apoptosis, cell Mitochondria preventing SMAC proliferation, cell invasion and R-{D-Arg}-RK-1E14 >100 interaction with it metastasis, modulates inflammatory Nucleus signaling, (Cytosol, nucleus and […]

For the molecule `CSCC[C@H](NC(=O)[C@H](CCCNC(=N)N)NC(=O)[C@H](Cc1ccc(O)cc1)NC(=O)[C@H](CC(C)C)NC(=O)[C@H](CCC(=O)O)NC(=O)[C@H](Cc1ccccc1)NC(=O)[C@H](CCCN)NC(=O)[C@H](Cc1c(C)cc(O)cc1C)NC(=O)[C@H](N)CCCNC(=N)N)C(=O)N[C@@H](CO)C(=O)N[C@H](C(=O)N[C@@H](Cc1ccc(O)cc1)C(=O)N[C@@H](CO)C(=O)N[C@H](C(=O)N[C@@H](Cc1ccccc1)C(=O)N1CCC[C@H]1C(=O)N[C@@H](C)C(=O)NCC(=O)N[C@H](C(=O)N1CCC[C@H]1C(=O)N[C@H](C(=O)N[C@@H](CO)C(=O)N[C@@H](CCC(=O)O)C(=O)N[C@@H](CCCNC(=N)N)C(=O)N[C@@H](CO)C(=O)N[C@@H](CC(C)C)C(=O)N[C@@H](C)C(=O)N[C@@H](CCCNC(=N)N)C(=O)N[C@@H](C)C(=O)O)C(C)C)C(C)C)[C@@H](C)O)[C@@H](C)O` [D-Arg–Dmt–Orn–Phe-1E14] (H-[dR][Dmt][Orn]FELYRMSTYSTFPAGVPVSERSLARA-OH; N-terminus and C-terminus assumed), the IC50 is over 100 µM.

As for `CC[C@H](C)[C@H](NC(=O)[C@@H]1CCCN1C(=O)[C@H](CO)NC(=O)[C@H](CO)NC(=O)[C@@H](NC(=O)[C@H](CO)NC(=O)[C@H](CC(C)C)NC(=O)[C@H](C)NC(=O)[C@H](Cc1ccccc1)NC(=O)[C@H](CCCN)NC(=O)[C@H](Cc1c(C)cc(O)cc1C)NC(=O)[C@H](N)CCCNC(=N)N)[C@@H](C)O)C(=O)N1CCC[C@H]1C(=O)N[C@@H](CO)C(=O)N[C@H](C(=O)N1CCC[C@H]1C(=O)N[C@@H](CCC(N)=O)C(=O)N[C@@H](CO)C(=O)N[C@@H](CCC(N)=O)C(=O)N[C@@H](C)C(=O)N[C@@H](CCC(N)=O)C(=O)N1CCC[C@H]1C(=O)N[C@@H](CCC(N)=O)C(=O)N[C@H](C(=O)NCC(=O)N[C@@H](CO)C(=O)NCC(=O)N[C@@H](C)C(=O)N[C@@H](CO)C(=O)O)[C@@H](C)O)C(C)C` [H-(D-Arg)–Dmt–Orn–Phe- 2F3] (H-[dR][Dmt][Orn]FALSTSSPIPSVPQSQAQPQTGSGAS-OH; C-terminus assumed), the IC50 was over 100 µM.

Molecule `CSCC[C@H](NC(=O)[C@H](CCCNC(=N)N)NC(=O)[C@H](Cc1ccc(O)cc1)NC(=O)[C@H](CC(C)C)NC(=O)[C@H](CCC(=O)O)NC(=O)[C@H](CCCCN)NC(=O)[C@H](CCCNC(=N)N)NC(=O)[C@@H](CCCNC(=N)N)NC(=O)[C@@H](N)CCCNC(=N)N)C(=O)N[C@@H](CO)C(=O)N[C@H](C(=O)N[C@@H](Cc1ccc(O)cc1)C(=O)N[C@@H](CO)C(=O)N[C@H](C(=O)N[C@@H](Cc1ccccc1)C(=O)N1CCC[C@H]1C(=O)N[C@@H](C)C(=O)NCC(=O)N[C@H](C(=O)N1CCC[C@H]1C(=O)N[C@H](C(=O)N[C@@H](CO)C(=O)N[C@@H](CCC(=O)O)C(=O)N[C@@H](CCCNC(=N)N)C(=O)N[C@@H](CO)C(=O)N[C@@H](CC(C)C)C(=O)N[C@@H](C)C(=O)N[C@@H](CCCNC(=N)N)C(=O)N[C@@H](C)C(=O)O)C(C)C)C(C)C)[C@@H](C)O)[C@@H](C)O` [R-{D-Arg}-RK-1E14] (H-R[dR]RKELYRMSTYSTFPAGVPVSERSLARA-OH; N-terminus and C-terminus assumed) showed an IC50 of over 100 µM.

In turn, `CC(C)C[C@H](NC(=O)[C@H](CC(=O)O)NC(=O)[C@H](CO)NC(=O)[C@H](CO)NC(=O)[C@H](Cc1c[nH]cn1)NC(=O)[C@H](CC(=O)O)NC(=O)[C@@H](NC(=O)CNC(=O)[C@H](CCC(N)=O)NC(=O)[C@H](Cc1ccccc1)NC(=O)[C@H](C)NC(=O)[C@H](CCCNC(=N)N)NC(=O)[C@H](CO)NC(=O)[C@H](CO)NC(=O)[C@H](CCC(N)=O)NC(=O)[C@H](CC(N)=O)NC(=O)[C@@H]1CCCN1C(=O)[C@H](CCCCN)NC(=O)[C@H](CCCNC(=N)N)NC(=O)[C@@H](CCCNC(=N)N)NC(=O)[C@@H](N)CCCNC(=N)N)[C@@H](C)O)C(=O)N[C@@H](C)C(=O)N[C@@H](Cc1ccccc1)C(=O)N[C@@H](CC(=O)O)C(=O)N[C@@H](Cc1ccccc1)C(=O)N[C@@H](CC(C)C)C(=O)N[C@@H](CO)C(=O)N[C@@H](CCC(N)=O)C(=O)N[C@@H](CCC(N)=O)C(=O)O` [R-{D-Arg}-RK-2I8] (H-R[dR]RKPNQSSRAFQGTDHSSDLAFDFLSQQ-OH; N-terminus and C-terminus assumed) returned an IC50 of over 100 µM.

Regarding `CC(C)C[C@H](NC(=O)[C@H](CCCNC(=N)N)NC(=O)[C@H](C)NC(=O)[C@H](Cc1c[nH]c2ccccc12)NC(=O)[C@H](CC(C)C)NC(=O)[C@H](CO)NC(=O)[C@@H]1CCCN1C(=O)[C@@H](NC(=O)CNC(=O)[C@H](Cc1ccc(O)cc1)NC(=O)[C@@H](NC(=O)[C@@H](NC(=O)[C@H](CCCNC(=N)N)NC(=O)[C@H](C)NC(=O)[C@H](CCCNC(=N)N)NC(=O)[C@@H]1CCCN1C(=O)[C@H](CC(=O)O)NC(=O)[C@H](CO)NC(=O)[C@@H](NC(=O)CNC(=O)[C@H](CO)NC(=O)[C@@H](NC(=O)[C@H](CC(C)C)NC(=O)[C@H](CC(C)C)NC(=O)[C@H](C)NC(=O)[C@H](CCCCN)NC(=O)[C@H](CCCNC(=N)N)NC(=O)[C@@H](CCCNC(=N)N)NC(=O)[C@@H](N)CCCNC(=N)N)[C@@H](C)O)[C@@H](C)O)C(C)C)[C@@H](C)O)[C@@H](C)O)C(=O)O` [R-{D-Arg}-RK- 1C11] (H-R[dR]RKALLTSGTSDPRARVTYGTPSLWARL-OH; N-terminus and C-terminus assumed), the IC50 amounted to 66.5 ± 3.9 µM.

As for `CC[C@H](C)[C@H](NC(=O)[C@@H]1CCCN1C(=O)[C@H](CO)NC(=O)[C@H](CO)NC(=O)[C@@H](NC(=O)[C@H](CO)NC(=O)[C@H](CC(C)C)NC(=O)[C@H](C)NC(=O)[C@H](CCCCN)NC(=O)[C@H](CCCNC(=N)N)NC(=O)[C@@H](CCCNC(=N)N)NC(=O)[C@@H](N)CCCNC(=N)N)[C@@H](C)O)C(=O)N1CCC[C@H]1C(=O)N[C@@H](CO)C(=O)N[C@H](C(=O)N1CCC[C@H]1C(=O)N[C@@H](CCC(N)=O)C(=O)N[C@@H](CO)C(=O)N[C@@H](CCC(N)=O)C(=O)N[C@@H](C)C(=O)N[C@@H](CCC(N)=O)C(=O)N1CCC[C@H]1C(=O)N[C@@H](CCC(N)=O)C(=O)N[C@H](C(=O)NCC(=O)N[C@@H](CO)C(=O)NCC(=O)N[C@@H](C)C(=O)N[C@@H](CO)C(=O)O)[C@@H](C)O)C(C)C` [R-{D-Arg}-RK- 2F3] (H-R[dR]RKALSTSSPIPSVPQSQAQPQTGSGAS-OH; N-terminus and C-terminus assumed), the IC50 was found to be 28.9 ± 5.2 µM. Also, the IC50 (A549 cells, serum‐free medium, SRB, read-out: IC50, cell proliferation inhibition) was 19.6 µM.

The values above are taken from PMC8564633, “SMAC/Diablo controls proliferation of cancer cells by regulating phosphatidylethanolamine synthesis” (Molecular Oncology, 2021).
